molecular target: T1, SyHR (Synechocystis sp. PCC 7509, UniProt A0A9X9ZA75); assay: absorption spectral shift titration, Hill fit; format: binding
T1 sequence (A0A9X9ZA75 1-234): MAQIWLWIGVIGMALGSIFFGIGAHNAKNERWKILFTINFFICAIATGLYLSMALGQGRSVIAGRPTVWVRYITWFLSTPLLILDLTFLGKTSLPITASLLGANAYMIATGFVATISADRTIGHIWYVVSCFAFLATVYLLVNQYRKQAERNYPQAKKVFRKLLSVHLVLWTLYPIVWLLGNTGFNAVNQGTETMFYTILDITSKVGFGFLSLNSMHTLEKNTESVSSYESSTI

Row | Kd [µM] | Compound
1 | 280 ± 50 | Cl [a, Cl^−]
2 | 110 ± 20 | Br [b, Br^−]
3 | 210 ± 30 | I [d, I^−]

Row | Compound | Kd [µM]
4 | O=[N+]([O-])O [c, NO3^−] | 6150 ± 750
